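Each compound was tested at five concentrations against cells in 96-well plates for 48 hours. The concentration for full growth arrest is given as TGI.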
What was measured:
Test in all cases: NCI tumour cell line growth inhibition, 48 h
[1] = tested on: CAKI-1 renal
[2] = tested on: HOP-92 NSCLC
[3] = tested on: SK-MEL-5 melanoma
[4] = tested on: COLO 205 colon
[5] = tested on: SK-MEL-28 melanoma
[6] = tested on: SK-MEL-2 melanoma
[7] = tested on: A549 NSCLC
[8] = tested on: A498 renal
[9] = tested on: OVCAR-4 ovarian
[10] = tested on: HT29 colon
[11] = tested on: DU-145 prostate
[12] = tested on: NCI-H460 lung
[13] = tested on: SF-295 CNS
[14] = tested on: HCC-2998 colon
[15] = tested on: KM12 colon
[16] = tested on: PC-3 prostate
[17] = tested on: MDA-N
[18] = tested on: K-562 leukemia
[19] = tested on: SK-OV-3 ovarian
[20] = tested on: BT-549 breast

SMILES	TGI [1]	TGI [2]	TGI [3]	TGI [4]	TGI [5]	TGI [6]	TGI [7]	TGI [8]	TGI [9]	TGI [10]	TGI [11]	TGI [12]	TGI [13]	TGI [14]	TGI [15]	TGI [16]	TGI [17]	TGI [18]	TGI [19]	TGI [20]
O=C(/C=C\c1ccccc1)Oc1ccc(/C=C2\CCCCC2=O)cc1	97.9 µM	> 100 µM	> 100 µM	62.9 µM	> 100 µM	> 100 µM	> 100 µM	> 100 µM	> 100 µM	31.7 µM	> 100 µM	> 100 µM	> 100 µM	> 100 µM	> 100 µM	> 100 µM	> 100 µM	–	–	–
Cc1nc(-c2cc3c(ccc4ccccc43)oc2=O)cc2c1c(=O)oc1ccc3ccccc3c12	> 100 µM	> 100 µM	> 100 µM	> 100 µM	> 100 µM	> 100 µM	> 100 µM	> 100 µM	> 100 µM	> 100 µM	> 100 µM	> 100 µM	> 100 µM	> 100 µM	> 100 µM	> 100 µM	–	> 100 µM	> 100 µM	> 100 µM
COc1ccc(/C=C2\SC(c3ccc(OC)cc3)N(NC(=O)Cc3ccccc3)C2=O)cc1 (stereo not given)	> 100 µM	> 100 µM	> 100 µM	> 100 µM	> 100 µM	> 100 µM	> 100 µM	> 100 µM	> 100 µM	> 100 µM	–	> 100 µM	> 100 µM	–	> 100 µM	–	–	> 100 µM	> 100 µM	–
CN1CCCC1=NC#N	> 100 µM	–	> 100 µM	> 100 µM	> 100 µM	> 100 µM	> 100 µM	> 100 µM	> 100 µM	> 100 µM	> 100 µM	> 100 µM	> 100 µM	> 100 µM	> 100 µM	> 100 µM	> 100 µM	> 100 µM	> 100 µM	–
CC(C)c1c(O[Si](C(C)C)(C(C)C)C(C)C)c2c3c(ccc4c3c1OC4(C)C)C(C)CC2 (stereo not given)	> 100 µM	> 100 µM	> 100 µM	> 100 µM	> 100 µM	> 100 µM	> 100 µM	> 100 µM	> 100 µM	> 100 µM	> 100 µM	> 100 µM	> 100 µM	–	> 100 µM	> 100 µM	> 100 µM	> 100 µM	> 100 µM	–
Cc1ccc2c(c1)SC(c1cc3c(cc1Br)OCO3)S2 (stereo not given)	> 100 µM	> 31.6 µM	> 31.6 µM	> 31.6 µM	> 31.6 µM	> 31.6 µM	> 31.6 µM	> 31.6 µM	> 31.6 µM	> 31.6 µM	–	> 31.6 µM	> 31.6 µM	> 31.6 µM	> 31.6 µM	–	–	> 31.6 µM	> 31.6 µM	–
O=C(Nc1nc2ccccc2n1Cc1ccc(Cl)cc1)NC12CC3CC(CC(C3)C1)C2	> 100 µM	56.8 µM	> 100 µM	> 100 µM	68.3 µM	87.7 µM	66.5 µM	–	28.9 µM	> 100 µM	–	> 100 µM	27.3 µM	> 100 µM	> 100 µM	–	–	> 100 µM	39.2 µM	–
COc1cc([C@@H]2c3cc4c(cc3[C@@H](NCc3ccccc3)C3COC(=O)[C@@H]32)OCO4)cc(OC)c1O (stereo not given in full)	14.5 µM	37.9 µM	35.8 µM	> 89 µM	> 100 µM	52.2 µM	15.4 µM	19.4 µM	> 75.5 µM	60.1 µM	–	15.8 µM	26.5 µM	33 µM	49.3 µM	–	–	> 79.1 µM	> 58.9 µM	–
CSCCCNC(=O)c1csc(-c2csc(CCN)n2)n1	> 100 µM	> 100 µM	> 100 µM	> 100 µM	> 100 µM	–	> 100 µM	–	> 100 µM	> 100 µM	> 100 µM	> 100 µM	> 100 µM	> 100 µM	> 100 µM	> 100 µM	–	> 100 µM	> 100 µM	> 100 µM
O=C1/C(=C/c2ccccc2)N=C(c2ccccc2)N1C1Nc2cc3c(cc2S1)NC(N1C(=O)/C(=C/c2ccccc2)N=C1c1ccccc1)S3 (stereo not given)	> 100 µM	8.27 µM	> 100 µM	–	> 100 µM	77.5 µM	–	68 µM	> 100 µM	> 100 µM	> 100 µM	> 100 µM	> 100 µM	4.76 µM	55.6 µM	> 100 µM	> 100 µM	> 100 µM	> 100 µM	–
CCCc1c(C(=O)OCC)[nH]c(-c2ccc(-c3[nH]c(C(=O)OCC)c(CCC)c3C(=O)OCC)o2)c1C(=O)OCC	> 100 µM	> 100 µM	> 100 µM	> 100 µM	> 100 µM	> 100 µM	> 100 µM	> 100 µM	> 100 µM	> 100 µM	–	> 100 µM	> 100 µM	> 100 µM	> 100 µM	–	–	> 100 µM	> 100 µM	–
Cc1cc(C)n(-c2nc3ccccc3c(=O)n2-c2ccccc2)n1	> 100 µM	–	> 100 µM	> 100 µM	> 100 µM	> 100 µM	> 100 µM	> 100 µM	> 100 µM	> 100 µM	> 100 µM	> 100 µM	> 100 µM	> 100 µM	–	> 100 µM	> 100 µM	> 100 µM	> 100 µM	–
c1ccc(N=c2sc3ccccc3sc2=Nc2ccccc2)cc1	4.59 µM	9.93 µM	5.14 µM	3.69 µM	3.4 µM	3.45 µM	9.1 µM	5.65 µM	3.68 µM	3.86 µM	17.1 µM	3.79 µM	12.5 µM	3.24 µM	4.25 µM	25.5 µM	3.05 µM	> 100 µM	11.8 µM	–
CC(C)(C)CC(C)(C)N=C(N)NO	> 100 µM	> 100 µM	> 100 µM	> 100 µM	> 100 µM	> 100 µM	> 100 µM	97.6 µM	> 100 µM	> 100 µM	> 100 µM	> 100 µM	> 100 µM	> 100 µM	> 100 µM	> 100 µM	> 100 µM	> 100 µM	99.1 µM	–
CC[N+]1(C)CCC(O)(c2ccccc2)C(C(=O)c2ccccc2)C1 (stereo not given)	7.51 µM	25.4 µM	33.6 µM	36.7 µM	30.9 µM	37.7 µM	27.9 µM	30.7 µM	25.9 µM	31.8 µM	44.6 µM	43 µM	35.9 µM	49.8 µM	39.3 µM	33.9 µM	–	13.2 µM	32.1 µM	27.7 µM
COC(=O)c1c2c(c(-c3ccccc3)c3c1-c1nc(Cl)ccc1CC3)CCc1ccc(Cl)nc1-2	> 100 µM	> 100 µM	> 100 µM	> 100 µM	> 100 µM	–	> 100 µM	> 100 µM	> 100 µM	> 100 µM	–	> 100 µM	> 100 µM	> 100 µM	> 100 µM	–	–	> 100 µM	> 100 µM	–
CC1(Br)C(=O)NC(=O)N(C2CC(N=[N+]=[N-])C(CO)O2)C1N=[N+]=[N-] (stereo not given)	> 100 µM	> 100 µM	> 100 µM	> 100 µM	> 100 µM	> 100 µM	> 100 µM	> 100 µM	> 100 µM	> 100 µM	–	> 100 µM	> 100 µM	> 100 µM	> 100 µM	–	–	> 100 µM	> 100 µM	–
O=C(O)c1nc2ccccc2nc1Nc1ccc(F)cc1	63.4 µM	85.9 µM	54.2 µM	76.2 µM	> 100 µM	76.5 µM	> 100 µM	> 100 µM	> 100 µM	> 100 µM	> 100 µM	> 100 µM	58.5 µM	> 100 µM	> 100 µM	90.7 µM	–	94.1 µM	–	> 100 µM
NC1=CN(Cc2ccccc2)C2=N/C(=C\c3ccccc3)C(=O)N12	> 100 µM	> 100 µM	> 100 µM	> 100 µM	> 100 µM	> 100 µM	> 100 µM	> 100 µM	> 100 µM	> 100 µM	> 100 µM	> 100 µM	> 100 µM	> 100 µM	> 100 µM	> 100 µM	–	> 100 µM	> 100 µM	> 100 µM
NCCCCN(CCCN)Cc1ccccc1	> 100 µM	> 100 µM	> 100 µM	> 100 µM	> 100 µM	> 100 µM	> 100 µM	> 100 µM	> 100 µM	> 100 µM	> 100 µM	> 100 µM	> 100 µM	> 100 µM	> 100 µM	> 100 µM	–	> 100 µM	> 100 µM	> 100 µM
Cc1nc(-c2nc(C)c(C(=O)NN(C)C)s2)sc1C(=O)NN(C)C	> 100 µM	> 100 µM	> 100 µM	53.9 µM	> 100 µM	> 100 µM	–	> 100 µM	> 100 µM	> 100 µM	–	> 100 µM	> 100 µM	> 100 µM	> 100 µM	–	–	> 100 µM	> 100 µM	–
CCOC(=O)C(=Cc1cc(OC)ccc1OC)C(=O)OCC	28.1 µM	17 µM	17.2 µM	17.2 µM	17.1 µM	18.1 µM	26.9 µM	28.5 µM	21.6 µM	17 µM	–	> 100 µM	26.5 µM	34.8 µM	19.9 µM	–	–	27.4 µM	29.9 µM	–
O=c1cc(-c2ccccc2)oc2ccc(-c3ccc4oc(-c5ccccc5)cc(=O)c4c3)cc12	46 µM	30.8 µM	25.5 µM	41.5 µM	–	32.7 µM	50.6 µM	27.9 µM	38.9 µM	> 100 µM	–	41.9 µM	43.4 µM	30 µM	–	–	29 µM	34.3 µM	> 100 µM	–
COCOCC1CCCN1CN1CCC[C@H]1COCOC (stereo not given in full)	> 100 µM	> 100 µM	> 100 µM	> 100 µM	> 100 µM	> 100 µM	> 100 µM	> 100 µM	> 100 µM	> 100 µM	> 100 µM	> 100 µM	> 100 µM	–	> 100 µM	> 100 µM	> 100 µM	> 100 µM	> 100 µM	–
COc1ccc2nc(NC(=O)C(=O)C(C(=O)c3ccccc3-c3ccccc3)C3OC(=O)c4ccccc43)sc2c1 (stereo not given)	–	35.2 µM	31.1 µM	39.6 µM	51 µM	28 µM	76.4 µM	40.8 µM	–	> 100 µM	–	50.2 µM	> 100 µM	29.1 µM	54.9 µM	–	–	> 100 µM	88 µM	–
CC(C)Oc1ccc(CNC2=NCCO2)c2ccccc12	–	–	26.3 µM	36.8 µM	27.6 µM	–	30.8 µM	23 µM	31.1 µM	16.3 µM	33.5 µM	26.7 µM	26.8 µM	25.3 µM	34 µM	–	–	15.8 µM	30.9 µM	–
CN(C)c1nc(=NCc2cccs2)ss1	> 10 µM	> 10 µM	> 10 µM	> 10 µM	> 10 µM	–	> 10 µM	> 10 µM	> 10 µM	> 10 µM	> 10 µM	> 10 µM	> 10 µM	> 10 µM	> 10 µM	> 10 µM	> 10 µM	> 10 µM	> 10 µM	–
